Series [1] in a line: Turbidity assay (in vitro solubility assay), 7KC suspension. The conditions noted are these: 7KC vs cholesterol. It counts as physicochemical. The method, then: This single concentration of cyclodextrin is used in order to standardize the test results. To perform the test, the samples are incubated for 30 mins at 37 C, and then absorbance at 350 nm is measured, e.g., using a spectrophotometer plate reader. Relative turbidity is determined by dividing the measured turbidity in the presence of the cyclodextrin to the baseline turbidity without the cyclodextrin. A given cyclodextrin has greater affinity for 7KC than cholesterol if the relative turbidity of the 7KC suspension is lower than the relative turbidity of the cholesterol solution.

In a further series the test system is blood cells. Nature of the series: Hemolysis assay. The note with it: 7.5 mM, three hours at 37 C. Format: cell-based. As to the method:
For the test solutions, the amount of PBS varied depending on the concentration of cyclodextrin being tested. Samples were tested in triplicate. 50 μL of blood was added to each sample with PBS and cyclodextrin solution (stocks also made in PBS) to achieve the appropriate concentration in a final volume of 200 ul. 5% Triton X-100 was used as the positive control and PBS was the negative control. Once all the samples were mixed the samples were placed into a 37 C incubator for three hours with agitation. The positive control was 100% hemolyzed by Triton X-100 detergent. Once the samples were out of incubation, they were diluted by the same factor in a 96 hydrograde plate and normalized to the positive control absorbance, which is around 1.1. The absorbance is read at 540 nm. The average of the samples was then corrected by subtracting the negative control. The experiment was run three times, and the error bars are the standard error of the mean (Melanga [et al.], Journal of Pharmaceutical Sciences, 105(9):2921-31. (2016)), (Kiss [et al.], European Journal of Pharmaceutical Sciences, 40(4):376-80. (2010)).

Series [2] relates to blood cells (whole blood). Nature of the series: Extraction of 7KC and cholesterol from blood cells (ex vivo whole blood, LC-MS/MS). Format: cell-based, human. The conditions noted are these: whole blood incubated 3 hours at 37C; for plasma (serum) cholesterol levels: mass spectrometry. As to the method:
Blood was collected from healthy volunteers by licensed phlebotomists. The test substances or PBS alone (negative control) were added to whole blood at various concentrations and incubated for 3 hours at 37C. Blood was then spun down and serum collected. Serum was frozen and then processed for mass spec.
Plasma free 7-ketocholesterol was determined by LC-MS/MS following protein precipitation and extraction with acetonitrile and derivatization with the novel quaternary aminooxy (QAO) mass tag reagent, Amplifex Keto Reagent (AB Sciex, Framingham, Mass., USA), which has been used in the analysis of testosterone (Star-Weinstock [et al.], Analytical Chemistry, 84(21):9310-9317. (2012)).
A 50 μL sample of plasma was spiked with 0.5 ng of the internal standard, d7-7-ketocholesterol (Toronto Research Chemicals, North York, Ontario, CA) prepared at 0.1 ng/μL in ethanol. The sample was treated with 250 μL of acetonitrile, vortex mixed, centrifuged to remove protein at 12,000×g for 10 min. The supernatant was dried under vacuum and then treated with 75 μL of QAO reagent. The working reagent was prepared by mixing 0.7 mL of Amplifex keto reagent with 0.7 mL of Amplifex keto diluent to prepare a 10 mg/mL stock. This stock was then diluted 1:4 with 5% acetic acid in methanol to a final working concentration of 2.5 mg/mL. The mixture was allowed to react at room temperature for two days before LC-MS/MS analysis.
Standards of 7-ketocholesterol (Toronto Research Chemicals, North York, Ontario, CA) were prepared from 1 to 100 ng/ml in charcoal stripped plasma, SP1070, (Golden West Biological, Temecula, Calif., USA) and in phosphate buffered saline. There was residual 7-ketocholesterol detected in the stripped plasma, so the standards from PBS were used.
QAO-7-ketocholesterol derivatives were analyzed using a 4000 Q-TRAP hybrid/triple quadrupole linear ion trap mass spectrometer (SCIEX, Framingham, Mass., USA) with electrospray ionization (ESI) in positive mode. The mass spectrometer was interfaced to a Shimadzu (Columbia, Md.) SIL-20AC XR auto-sampler followed by 2 LC-20AD XR LC pumps.
The instrument was operated with the following settings: source voltage […], GS1 50, GS2 50, CUR 20, TEM 550 and CAD gas medium. Compounds were quantified with multiple reaction monitoring (MRM) and transitions optimized by infusion of pure derivatized compounds as presented in Table 1 below. The bold transitions were used for quantification.
Separation was achieved using a Gemini 3μ C6-phenyl 110 Å, 100×2 mm column (Phenomenex, Torrance, Calif., USA) kept at 35° C. using a Shimadzu (Columbia, Md.) CTO-20AC column oven. The gradient mobile phase was delivered at a flow rate of 0.5 ml/min, and consisted of two solvents, A: 0.1% formic acid in water, B: 0.1% formic acid in acetonitrile. The initial concentration of solvent B was 20% followed by a linear increase to 60% B in 10 min, then to 95% B in 0.1 min, held for 3 minutes, decreased back to starting 20% B over 0.1 min, and then held for 4 min. […]
Data were acquired using Analyst 1.6.2 (SCIEX, Framingham, Mass., USA) and analyzed with Multiquant 3.0.1 (SCIEX, Framingham, Mass., USA) software. Sample values were calculated from standard curves generated from the peak area ratio of the analyte to internal standard versus the analyte concentration that was fit to a linear equation with 1/× weighting. The lower limit of quantification was 1 ng/mL with an accuracy of 102% and precision (relative standard deviation) of 8.5%. […]

Consider “large-face triazole-linked beta-cyclodextrin HP(βCD-Triazole-βCD) DS˜3 [HPβCD -triazole-DS3]”, for which the “specificity for 7KC over cholesterol (turbidity)” value in series [1] was “greater specificity for 7KC over cholesterol”; in series [1] (listed as Triazole-linked HPβCD dimer (DS˜3)), “affinity and specificity for 7KC”; in series [1] (listed as triazole dimers labeled DS 3) it was “greater specificity than DS 6 or DS 7 dimers”.
For “large-face butyl-linked hydroxy-propyl beta-cyclodextrin HP(βCD-BUT-βCD), DS˜3 [DS3 butyl dimer]”, the “specificity for 7KC over cholesterol (turbidity)” value in series [1] was “affinity and specificity for 7KC”; in series [1] (listed as HPβCD-butyl-DS3), “greater specificity for 7KC over cholesterol”.
“large-face triazole-linked beta-cyclodextrin (βCD-(Triazole)1-BCD, DS=0) [CD-triazole-CD DS 0]”: in series [1], the “specificity for 7KC over cholesterol (turbidity)” value is listed as “specificity for 7KC over cholesterol”. This substance also registered a hemolysis in the series on blood cells of approximately 5%.
Regarding “large-face butyl-linked hydroxy-propyl beta-cyclodextrin HP(βCD-BUT-βCD), DS˜8 [DS8 HPβCD dimers]”, the “removal of 7KC from blood cells (plasma free 7KC)” value in series [2] was “removed substantial quantities of 7KC”; in series [2] (listed as HPβCD dimers (DS˜8)), “much more efficiently than HPβCD monomers”. Also, the “plasma (serum) cholesterol levels” value in series [2] was “unperturbed”; in series [2] (listed as HPβCD dimer), “not perturbed”; in series [2] (listed as HPβCD dimers (DS˜8)), “does not appreciably impact plasma cholesterol levels”.

The record behind these values is patent US11279774B2, “Cyclodextrin dimers, compositions thereof, and uses thereof” (UNDERDOG PHARMACEUTICALS, INC., priority 2019, dated 2022).
